In the METLIN SMRT retention time set (Domingo-Almenara et al. 2019):

Test: gradient 5% acetonitrile 3 min, to 50% in 2 min, to 85% in 15 min, held 3 min, 100 µL/min
Conditions: column: Zorbax Extend-C18 2.1 x 50 mm; eluents: water / acetonitrile, 0.1% formic acid
Summary of the method: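 Over 3 months, pure standards in mixtures of ~100 molecules were run by HPLC coupled to a quadrupole time-of-flight mass spectrometer in positive and negative ionization mode. The column was a Zorbax Extend-C18 (2.1 × 50 mm, 1.8 μm) at 100 μL/min, eluted with water and acetonitrile each holding 0.1% formic acid, with 40 μL dead and 900 μL dwell volumes. Retention time was determined from adduct peaks chosen by software and checked manually.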

RP-LC retention time | Compound
733 s | O=C(Cn1nc2c3ccccc3ncn2c1=O)Nc1cccc(C(F)(F)F)c1
775 s | COc1cccc(S(=O)(=O)N2CCC(n3cnnc3-c3ccccc3)CC2)c1
778 s | O=C(CN1CCN(Cc2ccc(F)cc2)C(=O)C1=O)N1CCN(c2ccccc2F)CC1
841 s | Cc1c2c(nn1-c1ccc(SCC(=O)NC(C)C)nn1)CCC2
831 s | CCOc1ncccc1C(=O)NCc1cc(-c2cccs2)on1
644 s | CCCCN1CCN(Cc2nc(-c3ccc(N4CCC(C)CC4)nc3)no2)CC1
946 s | COc1ccc(Cl)cc1C(=O)Nc1ccc2c(c1)Sc1ncccc1C(=O)N2C
959 s | O=C(Nc1ccc(N2CCN(c3ccccc3)C2=O)nc1)c1cccc(Cl)c1
592 s | O=C(O)c1cc2cc(Cc3cccnc3)ccc2o1
906 s | CC1=C(c2ccc(C)c(C)c2)S(=O)(=O)N=C1N1CCCN(C(=O)NCCC(C)C)CC1
800 s | O=C1NC2(CCN(C(=O)Nc3ccccc3Cl)CC2)N=C1c1ccccc1
802 s | CCn1cc(C)c(C(=O)O)c1CC(=O)N1CCC(c2ccccc2)C1 (configuration not stated)
704 s | Cc1ccsc1C(=O)NC1CCN(c2cc(-c3ccccc3)[nH]n2)C1 (configuration not stated)
1050 s | CCc1ccccc1NC(=O)Cn1nc2cc(C)nc(Nc3ccccc3)n2c1=O
583 s | O=C(NCc1ccncc1)C1=C2CCCN2c2ccc(F)cc2S1(=O)=O
861 s | COc1cc(OC)c(NC(=O)Cn2c(=O)n(-c3ccccc3)c(=O)c3c2cc(C)n3C)cc1Cl
824 s | CCOC(=O)C1CCCN(c2nc(Nc3ccc(F)cc3)c3n[nH]nc3n2)C1 (configuration not stated)

RP-LC retention time | Compound
1130 s | CCOc1cccc(-c2noc(Cn3c(=O)n(-c4ccc(Cl)cc4)c(=O)c4sccc43)n2)c1
657 s | CO[C@H]1C(=O)N(C(C)C)[C@H]1C1CCN(C(=O)C2CC2)CC1
674 s | O=C(Nc1c(-c2ccccc2)nc2ccc(Cl)cn12)c1ccco1
1140 s | Cc1ccc(Cl)c(NC(=O)c2nc(C)oc2C)c1
954 s | Cc1ccc(S(=O)(=O)N2C[C@@H](F)C[C@H]2C(=O)N2CCc3ccccc3C2)cc1F
772 s | CC(C)n1c(=O)c(Nc2cccc(C(F)(F)F)c2)nc2ccncc21
744 s | O=S(=O)(c1cccs1)N1CCC(n2cnnc2-c2ccccc2)CC1
889 s | O=C(Cc1cccs1)Nc1cccn2nc(C3CCC3)nc12
774 s | CCN(CC)CCNC(=O)c1nn(-c2ccc(Cl)cc2)c2c1CCc1cc(OC)ccc1-2
728 s | CCCN(CC1CCOC1)C(=O)Nc1ccc(F)cc1 (configuration not stated)
1050 s | CCN1C(=O)c2ccccc2Oc2ccc(C(=O)NC3CCCCCC3)cc21
741 s | Cn1cccc1Cc1nnc(SCC(=O)NCC2CCCO2)n1Cc1ccccc1 (configuration not stated)
681 s | COc1ccc2cc(C(=O)N3CCC(CC(=O)NCC4CCCO4)CC3)[nH]c2c1 (configuration not stated)
712 s | Cc1ccc(CNS(=O)(=O)c2cc(-c3[nH]ncc3C(=O)N(C)C)oc2C)cc1
972 s | CC(C)CCNC(=O)C1(C)CN(S(=O)(=O)c2ccccc2)CC(=O)N1c1ccc(F)cc1F (configuration not stated)
900 s | O=C(c1cccc(Cl)c1)N1CCN(C(=O)c2nnn3c2COC(c2ccccc2)C3)CC1 (configuration not stated)

Compound | RP-LC retention time
O=C(c1ccsc1)N1[C@H]2CC[C@@H]1c1cnc(-c3ccc(F)cc3)nc1C2 | 952 s
O=C(c1cccc(Cn2cncn2)c1)N1CCC2(CC1)OCCO2 | 607 s
CCn1cc(C(=O)Nc2cccc(C)c2)c2cccnc21 | 857 s
Cc1cc(C)n(CCN2CCN(C(=O)Cc3cccs3)CC2)n1 | 548 s
